From ChEMBL document CHEMBL3616434, “Identification of Phenoxyalkylbenzimidazoles with Antitubercular Activity” (J Med Chem, 2015)
In brackets after ≈: the same amount, converted by molar mass. Activity calls are given as the source filed them. No cut-off for these calls is given here.

Legend:
[1] = test system: Mycobacterium tuberculosis; experiment: Antitubercular activity against Mycobacterium tuberculosis H37Rv ATCC 25618 under aerobic condition after 5 days; assay type: functional; details: H37Rv ATCC 25618, 120 h
[2] = Cytotoxicity against African green monkey Vero cells after 2 days by luminescent assay; assay type: cell-based; details: chlorocebus sabaeus, read-out: TC50
[3] = Selectivity index, ratio of TC50 for African green monkey Vero cells to MIC for Mycobacterium tuberculosis H37Rv ATCC 25618
[4] = test system: Mycobacterium tuberculosis; experiment: Bactericidal activity against replicating Mycobacterium tuberculosis at 1 to 10 times MIC after 21 days; assay type: functional, organism-based

Structure (SMILES) | MIC [1] [µM] | CC50 at 48 h [2] [µM] | Ratio [3] | Activity [4]
CCc1nc2ccccc2n1CCCCOc1ccc(Cl)cc1F | 1.5 (≈ 0.52 µg/mL) | 5.7 | 3.8 | 
CCc1nc2ccccc2n1CCCCOc1ccccc1C | 0.32 (≈ 0.0987 µg/mL) | 16 | 50 | 
CCc1nc2ccc(C#N)cc2n1CCCCOc1ccccc1 | > 20 | > 20 | >20 | 
CCc1nc2ccc(C)cc2n1CCCOc1ccc(C)c(C)c1 | 0.22 (≈ 0.0709 µg/mL) | 7.3 | 33 | 
FC(F)(F)c1nc2ccccc2n1CCCCOc1ccccc1 | > 20 |  |  | 
CCc1nc2ccccc2n1CCCCOc1ccccc1C(C)C | 20 (≈ 6.73 µg/mL) | 19 | 0.7 | 
c1ccc(OCCCCn2c(N3CCOCC3)nc3ccccc32)cc1 | 20 (≈ 7.03 µg/mL) | 20 | 20 | 
Cc1nc2ccccc2n1CCOc1ccc(Cl)cc1 | > 20 |  |  | 
CCc1nc2ccc(C)cc2n1CCCCNc1ccc(C)cc1C | 0.31 (≈ 0.104 µg/mL) | 20 | 65 | 
Cc1ccc2nc(C(C)O)n(CCCCOc3ccc(C)c(Cl)c3)c2c1 (stereo not given) | 11 (≈ 4.1 µg/mL) | 8.6 | 0.8 | 
CCc1nc2ccccc2n1CCCCOc1ccc(Cl)cc1C | 1.5 (≈ 0.514 µg/mL) | 20 | 2.3 | 
Cc1ccc2nc(C(C)O)n(CCCCOc3ccccc3)c2c1 (stereo not given) | 20 (≈ 6.49 µg/mL) |  |  | 
CCc1nc2ccccc2n1CCOc1ccccc1 | > 20 |  |  | 
CCc1cc2ccccc2n1CCCCSc1nnc(-c2ccc(Cl)cc2)o1 | > 20 | > 50 |  | 
CCc1nc2ccccc2n1CCCCOc1ccc(Cl)cc1Cl | 1.8 (≈ 0.654 µg/mL) | 23 | 13 | 
Clc1nc2ccccc2n1CCCCOc1ccccc1 | > 20 |  |  | 
Cc1nc2ccccc2n1CCCCOc1ccccc1 | > 20 | > 50 |  | 
CCc1nc2ccccc2n1CCCCOc1ccccc1Cl | 0.68 (≈ 0.224 µg/mL) | 16 | 23 | 

Structure (SMILES) | MIC [1] [µM] | CC50 at 48 h [2] [µM] | Ratio [3] | Activity [4]
CCc1nc2ccccc2n1CCCCOc1ccc(Cl)cc1 | 1.5 (≈ 0.493 µg/mL) | 14 | 9.3 | 
CCc1nc2ccc(Cl)cc2n1CCCCOc1ccccc1 | 7.1 (≈ 2.33 µg/mL) | 25 | 3.5 | 
CCc1nc2ccc(C)cc2n1CCCOc1ccc(C)c(Cl)c1 | 0.22 (≈ 0.0754 µg/mL) | 17 | 77 | inactive
CCc1nc2ccccc2n1CCOc1ccc(Cl)cc1 | > 20 |  |  | 
CCc1nc2ccccc2n1CCCCOc1c(Cl)cccc1Cl | 20 (≈ 7.27 µg/mL) | 13 | 1.5 | 
CCc1nc2ccccc2n1CCCCOc1cc(C)c(Cl)c([N+](=O)[O-])c1 | 7.9 (≈ 3.06 µg/mL) | 18 | 19 | 
Nc1nc2ccccc2n1CCCCOc1ccccc1 | > 20 |  |  | 
Cc1nc2ccccc2n1CCOc1ccccc1 | > 20 |  |  | 
c1ccc(OCCCCn2ncc3ccccc32)cc1 | > 20 | > 50 |  | 
CCc1nc2cc(OC)ccc2n1CCCCOc1ccccc1 | > 20 |  |  | 
CCc1nc2ccccc2n1CCCCOc1cccc(C)c1 | 0.42 (≈ 0.13 µg/mL) | 19 | 45 | 
CCc1nc2cc(C#N)ccc2n1CCCCOc1ccccc1 | > 20 | > 20 | >20 | 
CCc1nc2ccc(C)cc2n1CCCNc1ccc(Br)c(C)c1 | 0.052 (≈ 0.0201 µg/mL) | 27 | 523 | inactive
CCc1nc2ccc(C)cc2n1CCCSc1ccc(C)cc1 | 3.3 (≈ 1.07 µg/mL) | 12 | 3.6 | 
CCc1nc2ccc(C)cc2n1CCCOc1ccc(C)cc1 | 0.27 (≈ 0.0833 µg/mL) | 15 | 56 | 
CCc1nc2ccccc2n1CCCCOc1ccc(C)cc1 | 0.15 (≈ 0.0463 µg/mL) | 14 | 93 | 
CCc1nc2ccccc2n1CCCCOC | > 20 | > 50 |  | 
